These results are taken from patent US8268867B2, “1,3-dioxane carboxylic acids” (Cadila Healthcare Limited, priority 2006, dated 2012).

One data set deals with Swiss albino mice. Nature of the data set: Serum triglyceride lowering activity in Swiss albino mice. The data set is classed as in vivo. The conditions noted are these: Mus musculus, po, 144 h; male Swiss albino mice, 10 mg/kg/day orally for 6 days, serum 1 hour after dosing on 6th day. As for the experimental part: Male Swiss albino mice (SAM) were bred in Zydus animal house. All these animals were maintained under 12 hour light and dark cycle at 25±1° C. Animals were given standard laboratory chow (NIN, Hyderabad, India) and water ad libitum. SAM of 20-30 g body weight range was used. The protocol approved by Institutional Animal Ethics Committee is being used.
The test compounds were administered orally to Swiss albino mice at 0.001 to 50 mg/kg/day dose for 6 days. The compound was administered after suspending it in 0.25% CMC or dissolving it in water, when compound is water-soluble. Control mice were treated with vehicle (0.25% of Carboxymethyl cellulose; dose 10 ml/kg).
The blood samples were collected on 0th day and in fed state 1 hour after drug administration on 6th day of the treatment. The blood was collected in non heparinised capillary and the serum was analyzed for triglyceride (Wieland, O. Methods of Enzymatic analysis. Bergermeyer, H., O., Ed., 1963. 211-214; Trinder, P. Ann. Clin. Biochem. 1969. 6: 24-27). Measurement of serum triglyceride was done using commercial kits (Zydus-Cadila, Pathline, Ahmedabad, India).
Percentage Reduction in Triglycerides was Calculated According to the Formula: […]

Another data set relates to C57BL/KsJ-db/db mice. Nature of the data set: Serum glucose and triglycerides lowering activity in db/db mice. Format: in vivo. The note with it: male db/db mice, 3 mg/kg/day oral gavage for 6 days, 1 hour after dosing on 6th day. As for the experimental part:
Homozygous animal C57BL/KsJ-db/db mice are obese, hyperglycemic, hyperinsulinemic and insulin resistant (J. Clin. Invest, 85, 962-967, 1990), whereas heterozygous are lean and normoglycemic. The homozygous animals very closely mimic the human type H diabetes when blood sugar levels are not sufficiently controlled. Since this type of model resembles human type II diabetes mellitus, the compounds of the invention were tested for their antidiabetic activity in this model.
Male C57BL/KsJ-db/db mice of 8 to 14 weeks age, having body weight range of 40 to 60 grams, procured from the Jackson Laboratory, USA, were used in the experiment.
Test compounds were suspended on 0.25% carboxymethyl cellulose or dissolved in water when the compound is water soluble and administered to test group containing 6 animals at a dose of 0.001 mg to 50 mg/kg through oral gavage daily for 6 days. The control group received vehicle (dose 10 ml/kg). On the 6th day, one hour after the drug dosing, blood was collected from retro-orbital sinus and the serum was analyzed for glucose and triglycerides were measured using commercial kits (Zydus-Cadila, Pathline, Ahmedabad, India). The serum glucose and triglyceride lowering activities of the test compound was calculated according of the formula: […]

Structures can show the parent of a compound that is named as a salt.

A word on the melting point: it is the temperature, or range, at which the solid turns liquid. `CC(=NOCCCCC1COC(C)(C(=O)O)OC1)c1ccc2ccccc2c1` (centres unmarked) (as salt: sodium) [Example 84, Sodium Salt of 2-Methyl-5-[4-(1-naphthalen-2-yl-ethylideneaminooxy)-butyl]-[1,3]dioxane-2-carboxylic Acid] had a melting point of 240 °C.

Usually inhibition in vivo stands for the percentage by which the read-out fell short of the control. Low values mean little suppression, high ones strong suppression. In the data set with Swiss albino mice, `CC(=NOCCCCC1COC(C)(C(=O)O)OC1)c1ccc(CC(C)C)cc1` (centres unmarked) [Example 60, 5-{4-[1-(4-Isobutyl-phenyl)-ethylideneaminooxy]-butyl}-2-methyl-[1,3]dioxane-2-carboxylic Acid] registered an inhibition in vivo at 10 mg/kg/day of 62%.

With `COc1ccc(C(C)=NOCCCCC2COC(C)(C(=O)O)OC2)cc1` (centres unmarked) [Example 66, 5-{4-[1-(4-Methoxy-phenyl)-ethylideneaminooxy]-butyl}-2-methyl-[1,3]dioxane-2-carboxylic Acid], the inhibition in vivo at 10 mg/kg/day in the data set on Swiss albino mice was 50%. In addition, in the data set with C57BL/KsJ-db/db mice, the “Plasma TG reduction (%)” value amounted to 45% and the “Serum Glucose reduction (%)” value was 27%.

In the case of `CC(=NOCCCCC1COC(C)(C(=O)O)OC1)c1cccs1` (centres unmarked) [Example 68, 2-Methyl-5-[4-(1-thiophen-2-yl-ethylideneaminooxy)-butyl]-[1,3]dioxane-2-carboxylic Acid], the inhibition in vivo at 10 mg/kg/day with Swiss albino mice was found to be 33%.

On to `COc1ccc(C(C)=NOCCCCC2COC(C)(C(=O)O)OC2)cc1OC` (centres unmarked) [Example 59, 5-{4-[1-(3,4-Dimethoxy-phenyl)-ethylideneaminooxy]-butyl}-2-methyl-[1,3]dioxane-2-carboxylic Acid], for which the inhibition in vivo at 10 mg/kg/day in the data set on Swiss albino mice was 22%.

Regarding `COc1ccc(C(C)=NOCCCCC2COC(C)(C(=O)O)OC2)cc1C` (centres unmarked) [Example 57, 5-{4-[1-(4-Methoxy-3-methyl-phenyl)-ethylideneaminooxy]-butyl}-2-methyl-[1,3]dioxane-2-carboxylic Acid], the inhibition in vivo at 10 mg/kg/day with Swiss albino mice amounted to 43%.

In the data set with Swiss albino mice, `CC(=NOCCCCC1COC(C)(C(=O)O)OC1)c1ccc(F)c(Cl)c1` (centres unmarked) [Example 49, 5-{4-[1-(3-Chloro-4-fluoro-phenyl)-ethylideneaminooxy]-butyl}-2-methyl-[1,3]dioxane-2-carboxylic Acid] displayed an inhibition in vivo at 10 mg/kg/day of 51%.

In the data set on Swiss albino mice, `CC(=NOCCCCC1COC(C)(C(=O)O)OC1)c1ccc(OS(C)(=O)=O)cc1` (centres unmarked) [Example 67, 5-{4-[1-(4-Methanesulfonyloxy-phenyl)-ethylideneaminooxy]-butyl}-2-methyl-[1,3]dioxane-2-carboxylic Acid] yielded an inhibition in vivo at 10 mg/kg/day of 75%. For the same compound, in the data set on C57BL/KsJ-db/db mice, the “Plasma TG reduction (%)” value is recorded as 48% and the “Serum Glucose reduction (%)” value was found to be 12%.

In the data set on Swiss albino mice, `CC(=NOCCCCC1COC(C)(C(=O)O)OC1)c1ccc(Cl)cc1` (centres unmarked) [Example 46, 5-{4-[1-(4-Chloro-phenyl)-ethylideneaminooxy]-butyl}-2-methyl-[1,3]dioxane-2-carboxylic Acid] had an inhibition in vivo at 10 mg/kg/day of 39%.

Turning to `CC(=NOCCCCC1COC(C)(C(=O)O)OC1)c1ccc(C(F)(F)F)cc1` (centres unmarked) [Example 44, 2-Methyl-5-{4-[1-(4-trifluoromethyl-phenyl)-ethylideneaminooxy]-butyl}-[1,3]dioxane-2-carboxylic Acid], in the data set on Swiss albino mice, the inhibition in vivo at 10 mg/kg/day turned out to be 40%.

In the data set with Swiss albino mice, `CC(=NOCCCCC1COC(C)(C(=O)O)OC1)c1cccc(C)c1` (centres unmarked) [Example 76, 2-Methyl-5-[4-(1-m-tolyl-ethylideneaminooxy)-butyl]-[1,3]dioxane-2-carboxylic Acid] showed an inhibition in vivo at 10 mg/kg/day of 67%.

For `CCc1ccc(C(C)=NOCCCCC2COC(C)(C(=O)O)OC2)cc1` (centres unmarked) [Example 52, 5-{4-[1-(4-Ethyl-phenyl)-ethylideneaminooxy]-butyl}-2-methyl-[1,3]dioxane-2-carboxylic Acid], the inhibition in vivo at 10 mg/kg/day in the data set with Swiss albino mice stood at 36%.

`CCC(=NOCCCCC1COC(C)(C(=O)O)OC1)c1ccc(C)cc1` (centres unmarked) [Example 78, 2-Methyl-5-[4-(1-p-tolyl-propylideneaminooxy)-butyl]-[1,3]dioxane-2-carboxylic Acid] returned an inhibition in vivo at 10 mg/kg/day in the data set on Swiss albino mice of 42%.

With `CC(=NOCCCCC1COC(C)(C(=O)O)OC1)c1ccc2c(c1)CCCC2` (centres unmarked) [Example 64, 2-Methyl-5-{4-[1-(5,6,7,8-tetrahydro-naphthalen-2-yl)-ethylideneaminooxy]-butyl}-[1,3]dioxane-2-carboxylic Acid], the inhibition in vivo at 10 mg/kg/day in the data set with Swiss albino mice turned out to be 85%. In the data set with C57BL/KsJ-db/db mice, the “Plasma TG reduction (%)” value amounted to 46% and the “Serum Glucose reduction (%)” value is on record as 31%.

On to `CCCCCCCCOC(=O)C1(C)OCC(CCCCON=C(C)c2ccc3ccccc3c2)CO1` (centres unmarked) [Example 83, Octyl-2-methyl-5-[4-(1-naphthalen-2-yl-ethylideneaminooxy)-butyl]-[1,3]dioxane-2-carboxylate], for which the inhibition in vivo at 10 mg/kg/day in the data set with Swiss albino mice came out at 61%.

The compound `CC(=NOCCCCCC1COC(C)(C(=O)O)OC1)c1ccc2ccccc2c1` (centres unmarked) [Example 62, 2-Methyl-5-[5-(1-naphthalen-2-yl-ethylideneaminooxy)-pentyl]-[1,3]dioxane-2-carboxylic Acid] had an inhibition in vivo at 10 mg/kg/day in the data set with Swiss albino mice of 69%.

In the data set with Swiss albino mice, `CC(=NOCCCCC1COC(C)(C(=O)O)OC1)c1ccc(C)cc1` (centres unmarked) [Example 48, 2-Methyl-5-[4-(1-p-tolyl-ethylideneaminooxy)-butyl]-[1,3]dioxane-2-carboxylic Acid] showed an inhibition in vivo at 10 mg/kg/day of 64%. Moreover, in the data set with C57BL/KsJ-db/db mice, the “Plasma TG reduction (%)” value worked out at 44% and the “Serum Glucose reduction (%)” value amounted to 14%.

In the data set on Swiss albino mice, `CCOc1ccc(C(C)=NOCCCCC2COC(C)(C(=O)O)OC2)cc1` (centres unmarked) [Example 55, 5-{4-[1-(4-Ethoxy-phenyl)-ethylideneaminooxy]-butyl}-2-methyl-[1,3]dioxane-2-carboxylic Acid] had an inhibition in vivo at 10 mg/kg/day of 46%.

The compound `COc1ccc(C(C)=NOCCCCC2COC(C)(C(=O)O)OC2)cc1F` (centres unmarked) [Example 61, 5-{4-[1-(3-Fluoro-4-methoxy-phenyl)-ethylideneaminooxy]-butyl}-2-methyl-[1,3]dioxane-2-carboxylic Acid] had an inhibition in vivo at 10 mg/kg/day in the data set with Swiss albino mice of 44%.

`CCC(=NOCCCCC1COC(C)(C(=O)O)OC1)c1ccc(OC)cc1` (centres unmarked) [Example 77, 5-{4-[1-(4-Methoxy-phenyl)-propylideneaminooxy]-butyl}-2-methyl-[1,3]dioxane-2-carboxylic Acid]: in the data set with Swiss albino mice, the inhibition in vivo at 10 mg/kg/day turned out to be 39%.

In turn, `CC(=NOCCCCC1COC(C)(C(=O)O)OC1)c1ccc2c(c1)OCO2` (centres unmarked) [Example 69, 5-[4-(1-Benzo[1,3]dioxol-5-yl-ethylideneaminooxy)-butyl]-2-methyl-[1,3]dioxane-2-carboxylic acid] showed an inhibition in vivo at 10 mg/kg/day in the data set with Swiss albino mice of 61%.

In the case of `CC(=NOCCCCC1COC(C)(C(=O)O)OC1)c1ccc2ccccc2c1` (centres unmarked) [Example 63, 2-Methyl-5-[4-(1-naphthalen-2-yl-ethylideneaminooxy)-butyl]-[1,3]dioxane-2-carboxylic Acid], the inhibition in vivo at 10 mg/kg/day with Swiss albino mice turned out to be 84%. Further, in the data set with C57BL/KsJ-db/db mice, the “Plasma TG reduction (%)” value came out at 59% and the “Serum Glucose reduction (%)” value was determined as 41%.

In the data set with Swiss albino mice, `CC(=NOCCCCC1COC(C)(C(=O)O)OC1)c1ccc(-c2ccccc2)cc1` (centres unmarked) [Example 70, 5-[4-(1-Biphenyl-4-yl-ethylideneaminooxy)-butyl]-2-methyl-[1,3]dioxane-2-carboxylic Acid] came in with an inhibition in vivo at 10 mg/kg/day of 49%. In the data set with C57BL/KsJ-db/db mice, the “Plasma TG reduction (%)” value is 52% and the “Serum Glucose reduction (%)” value is reported as 26%.
